Measured values as given in publication PMC8534050, “Discovery of a Potent and Highly Isoform-Selective Inhibitor of the Neglected Ribosomal Protein S6 Kinase Beta 2 (S6K2)” (Cancers, 2021).

What was measured:
[1] = Nα-acetyl lysine stability assay (HPLC); format: physicochemical; settings: for half-life: read-out: half-life t1/2 towards Nα-acetyl lysine (converted)
Protocol: (§1) The Nα-acetyl lysine stability assay was performed in analogy to the GSH stability assay by substituting GSH with Nα-acetyl lysine at pH 7.4 and additionally at pH 10.2 to mimic the pKa depression often observed for biologically relevant lysines. PBS-buffer was substituted with a sodium tetraborate buffer (28 mM) for experiments at pH 10.2.
4. Nα-Acetyl Lysine Stability Assay […]
h. The stability towards Nα-acetyl lysine at pH 10.2 was corrected for the slope of the curve of the […]
Figure S11. Nα-acetyl lysine stability assay of compound 2 at pH 7.4 and pH 10.2. Error bars represent the standard deviation of triplicate measurements. AUC: area under the curve of residual starting material 2, t: time in hours.

[2] = Aqueous degradation at pH 10.2; format: physicochemical; settings: sodium tetraborate buffer (28 mM), no nucleophile, read-out: t1/2 of aqueous degradation (converted)
Protocol: as §1
4. Nα-Acetyl Lysine Stability Assay

[3] = molecular target: T1, AKT3 (Homo sapiens, UniProt Q9Y243); experiment: DSF thermal shift assay; format: binding; settings: inhibitor 10 μM, protein 2 μM
T1 construct: purchased in-house DSF (thermal shift) panel per Fedorov et al
Protocol: (§2) Differences in the melting temperature (ΔTm) were measured as described by Fedorov et al.. Purified proteins were buffered in 25 mM HEPES (pH 7.5), 500 mM NaCl and were assayed in a 384-well plate with a final protein concentration of 2 μM in 10 μL assay volume. Inhibitors were added to a final concentration of 10 μM using an ECHO 550 acoustic dispenser (Labcyte, San José, CA, USA). As a fluorescence probe, SYPRO-Orange (Molecular Probes, Eugene, OR, USA) was added in a 1:5000 dilution. […] Data were analyzed through Boltzmann equation in the Protein Thermal Shift software (Applied Biosystems, Waltham, MA, USA). Samples were measured in technical duplicates.

[4] = molecular target: T2, TTK1 (Homo sapiens, UniProt P33981); experiment: DSF thermal shift assay; format: binding; settings: inhibitor 10 μM, protein 2 μM
T2 construct: purchased in-house DSF (thermal shift) panel per Fedorov et al
Protocol: as §2

[5] = molecular target: T3, STK17 (Homo sapiens, UniProt Q9UEE5); experiment: DSF thermal shift assay; format: binding; settings: inhibitor 10 μM, protein 2 μM
T3 construct: purchased in-house DSF (thermal shift) panel per Fedorov et al
Protocol: as §2

[6] = molecular target: T4, BMPR2 (Homo sapiens, UniProt Q13873); experiment: DSF thermal shift assay; format: binding; settings: inhibitor 10 μM, protein 2 μM
T4 construct: purchased in-house DSF (thermal shift) panel per Fedorov et al
Protocol: as §2

[7] = molecular target: T5, PHKG2 (Homo sapiens, UniProt P15735); experiment: DSF thermal shift assay; format: binding; settings: inhibitor 10 μM, protein 2 μM
T5 construct: purchased in-house DSF (thermal shift) panel per Fedorov et al
Protocol: as §2

[8] = molecular target: T6, GPRK5 (Homo sapiens, UniProt P34947); experiment: DSF thermal shift assay; format: binding; settings: inhibitor 10 μM, protein 2 μM
T6 construct: purchased in-house DSF (thermal shift) panel per Fedorov et al
Protocol: as §2

[9] = molecular target: T7, STK17B (Homo sapiens, UniProt O94768); experiment: DSF thermal shift assay; format: binding; settings: inhibitor 10 μM, protein 2 μM
T7 construct: purchased in-house DSF (thermal shift) panel per Fedorov et al; IC50 follow-up at Reaction Biology Corp
Protocol: as §2

[10] = molecular target: T8, PAK4 (Homo sapiens, UniProt O96013); experiment: DSF thermal shift assay; format: binding; settings: inhibitor 10 μM, protein 2 μM
T8 construct: purchased in-house DSF (thermal shift) panel per Fedorov et al
Protocol: as §2

[11] = molecular target: T9, MAP2K4 (Homo sapiens, UniProt P45985); experiment: DSF thermal shift assay; format: binding; settings: inhibitor 10 μM, protein 2 μM
T9 construct: purchased in-house DSF (thermal shift) panel per Fedorov et al
Protocol: as §2

[12] = molecular target: T10, AURKB (Homo sapiens, UniProt Q96GD4); experiment: DSF thermal shift assay; format: binding; settings: inhibitor 10 μM, protein 2 μM
T10 construct: purchased in-house DSF (thermal shift) panel per Fedorov et al
Protocol: as §2

[13] = molecular target: T11, MAP3K5 (Homo sapiens, UniProt Q99683); experiment: DSF thermal shift assay; format: binding; settings: inhibitor 10 μM, protein 2 μM
T11 construct: purchased in-house DSF (thermal shift) panel per Fedorov et al
Protocol: as §2

[14] = molecular target: T12, MARK3 (Homo sapiens, UniProt P27448); experiment: DSF thermal shift assay; format: binding; settings: inhibitor 10 μM, protein 2 μM
T12 construct: purchased in-house DSF (thermal shift) panel per Fedorov et al
Protocol: as §2

[15] = molecular target: T13, BMX (Homo sapiens, UniProt P51813); experiment: DSF thermal shift assay; format: binding; settings: inhibitor 10 μM, protein 2 μM
T13 construct: purchased in-house DSF (thermal shift) panel per Fedorov et al; IC50 follow-up at Reaction Biology Corp
Protocol: as §2

[16] = molecular target: T14, TAF1 (Homo sapiens, UniProt P21675); experiment: DSF thermal shift assay; format: binding; settings: inhibitor 10 μM, protein 2 μM
T14 construct: purchased in-house DSF (thermal shift) panel per Fedorov et al
Protocol: as §2

[17] = molecular target: T15, PCTK1 (Homo sapiens, UniProt Q00536); experiment: DSF thermal shift assay; format: binding; settings: inhibitor 10 μM, protein 2 μM
T15 construct: purchased in-house DSF (thermal shift) panel per Fedorov et al; IC50 follow-up at Reaction Biology Corp
Protocol: as §2

[18] = molecular target: T16, CAMK1G (Homo sapiens, UniProt Q96NX5); experiment: DSF thermal shift assay; format: binding; settings: inhibitor 10 μM, protein 2 μM
T16 construct: purchased in-house DSF (thermal shift) panel per Fedorov et al; IC50 follow-up at Reaction Biology Corp
Protocol: as §2

[19] = molecular target: T17, MAPK9 (Homo sapiens, UniProt P45984); experiment: DSF thermal shift assay; format: binding; settings: inhibitor 10 μM, protein 2 μM
T17 construct: purchased in-house DSF (thermal shift) panel per Fedorov et al
Protocol: as §2

[20] = molecular target: T18, BMP2K (Homo sapiens, UniProt Q9NSY1); experiment: DSF thermal shift assay; format: binding; settings: inhibitor 10 μM, protein 2 μM
T18 construct: purchased in-house DSF (thermal shift) panel per Fedorov et al
Protocol: as §2

[21] = molecular target: T19, CLK1 (Homo sapiens, UniProt P49759); experiment: DSF thermal shift assay; format: binding; settings: inhibitor 10 μM, protein 2 μM
T19 construct: purchased in-house DSF (thermal shift) panel per Fedorov et al; IC50 follow-up at Reaction Biology Corp
Protocol: as §2

[22] = molecular target: T20, MAPK15 (Homo sapiens, UniProt Q8TD08); experiment: DSF thermal shift assay; format: binding; settings: inhibitor 10 μM, protein 2 μM
T20 construct: purchased in-house DSF (thermal shift) panel per Fedorov et al
Protocol: as §2

[23] = molecular target: T21, PIM3 (Homo sapiens, UniProt Q86V86); experiment: DSF thermal shift assay; format: binding; settings: inhibitor 10 μM, protein 2 μM
T21 construct: purchased in-house DSF (thermal shift) panel per Fedorov et al; IC50 follow-up at Reaction Biology Corp
Protocol: as §2

[24] = molecular target: T22, RIOK1 (Homo sapiens, UniProt Q9BRS2); experiment: DSF thermal shift assay; format: binding; settings: inhibitor 10 μM, protein 2 μM
T22 construct: purchased in-house DSF (thermal shift) panel per Fedorov et al; IC50 follow-up at Reaction Biology Corp
Protocol: as §2

[25] = molecular target: T23, CK2A1 (Homo sapiens, UniProt P68400); experiment: DSF thermal shift assay; format: binding; settings: inhibitor 10 μM, protein 2 μM
T23 construct: purchased in-house DSF (thermal shift) panel per Fedorov et al
Protocol: as §2

[26] = molecular target: T24, STK38L (Homo sapiens, UniProt Q9Y2H1); experiment: DSF thermal shift assay; format: binding; settings: inhibitor 10 μM, protein 2 μM
T24 construct: purchased in-house DSF (thermal shift) panel per Fedorov et al; IC50 follow-up at Reaction Biology Corp
Protocol: as §2

[27] = molecular target: T25, AAK1 (Homo sapiens, UniProt Q2M2I8); experiment: DSF thermal shift assay; format: binding; settings: inhibitor 10 μM, protein 2 μM
T25 construct: purchased in-house DSF (thermal shift) panel per Fedorov et al; IC50 follow-up at Reaction Biology Corp
Protocol: as §2

[28] = molecular target: T26, FGFR1 (Homo sapiens, UniProt P11362); experiment: DSF thermal shift assay; format: binding; settings: inhibitor 10 μM, protein 2 μM
T26 construct: purchased in-house DSF (thermal shift) panel per Fedorov et al; IC50 follow-up at Reaction Biology Corp
Protocol: as §2

[29] = molecular target: T27, PIM1 (Homo sapiens, UniProt P11309); experiment: DSF thermal shift assay; format: binding; settings: inhibitor 10 μM, protein 2 μM
T27 construct: purchased in-house DSF (thermal shift) panel per Fedorov et al
Protocol: as §2

[30] = molecular target: T28, FGFR3 (Homo sapiens, UniProt P22607); experiment: DSF thermal shift assay; format: binding; settings: inhibitor 10 μM, protein 2 μM
T28 construct: purchased in-house DSF (thermal shift) panel per Fedorov et al
Protocol: as §2

[31] = molecular target: T29, CSNK2A2 (Homo sapiens, UniProt P19784); experiment: DSF thermal shift assay; format: binding; settings: inhibitor 10 μM, protein 2 μM
T29 construct: purchased in-house DSF (thermal shift) panel per Fedorov et al
Protocol: as §2

[32] = molecular target: T30, DAPK3 (Homo sapiens, UniProt O43293); experiment: DSF thermal shift assay; format: binding; settings: inhibitor 10 μM, protein 2 μM
T30 construct: purchased in-house DSF (thermal shift) panel per Fedorov et al
Protocol: as §2

[33] = molecular target: T31, MAPK8 (Homo sapiens, UniProt P45983); experiment: DSF thermal shift assay; format: binding; settings: inhibitor 10 μM, protein 2 μM
T31 construct: purchased in-house DSF (thermal shift) panel per Fedorov et al; IC50 follow-up at Reaction Biology Corp
Protocol: as §2

[34] = molecular target: T32, CDK2 (Homo sapiens, UniProt P24941); experiment: DSF thermal shift assay; format: binding; settings: inhibitor 10 μM, protein 2 μM
T32 construct: purchased in-house DSF (thermal shift) panel per Fedorov et al; IC50 follow-up at Reaction Biology Corp
Protocol: as §2

[35] = molecular target: T33, GAK (Homo sapiens, UniProt O14976); experiment: DSF thermal shift assay; format: binding; settings: inhibitor 10 μM, protein 2 μM
T33 construct: purchased in-house DSF (thermal shift) panel per Fedorov et al; IC50 follow-up at Reaction Biology Corp
Protocol: as §2

T9 sequence (P45985 whole entry): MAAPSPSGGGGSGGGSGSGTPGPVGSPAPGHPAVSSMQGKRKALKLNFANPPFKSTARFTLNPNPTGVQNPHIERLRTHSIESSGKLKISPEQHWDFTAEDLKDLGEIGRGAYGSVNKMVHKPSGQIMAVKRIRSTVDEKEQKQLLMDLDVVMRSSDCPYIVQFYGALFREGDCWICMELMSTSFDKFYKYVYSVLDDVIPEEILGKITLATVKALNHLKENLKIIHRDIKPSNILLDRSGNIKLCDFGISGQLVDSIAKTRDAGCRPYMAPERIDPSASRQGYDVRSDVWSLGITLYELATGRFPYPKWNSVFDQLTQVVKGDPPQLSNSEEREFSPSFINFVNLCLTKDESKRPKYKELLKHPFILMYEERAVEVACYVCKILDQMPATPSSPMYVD
T14 sequence (P21675 whole entry): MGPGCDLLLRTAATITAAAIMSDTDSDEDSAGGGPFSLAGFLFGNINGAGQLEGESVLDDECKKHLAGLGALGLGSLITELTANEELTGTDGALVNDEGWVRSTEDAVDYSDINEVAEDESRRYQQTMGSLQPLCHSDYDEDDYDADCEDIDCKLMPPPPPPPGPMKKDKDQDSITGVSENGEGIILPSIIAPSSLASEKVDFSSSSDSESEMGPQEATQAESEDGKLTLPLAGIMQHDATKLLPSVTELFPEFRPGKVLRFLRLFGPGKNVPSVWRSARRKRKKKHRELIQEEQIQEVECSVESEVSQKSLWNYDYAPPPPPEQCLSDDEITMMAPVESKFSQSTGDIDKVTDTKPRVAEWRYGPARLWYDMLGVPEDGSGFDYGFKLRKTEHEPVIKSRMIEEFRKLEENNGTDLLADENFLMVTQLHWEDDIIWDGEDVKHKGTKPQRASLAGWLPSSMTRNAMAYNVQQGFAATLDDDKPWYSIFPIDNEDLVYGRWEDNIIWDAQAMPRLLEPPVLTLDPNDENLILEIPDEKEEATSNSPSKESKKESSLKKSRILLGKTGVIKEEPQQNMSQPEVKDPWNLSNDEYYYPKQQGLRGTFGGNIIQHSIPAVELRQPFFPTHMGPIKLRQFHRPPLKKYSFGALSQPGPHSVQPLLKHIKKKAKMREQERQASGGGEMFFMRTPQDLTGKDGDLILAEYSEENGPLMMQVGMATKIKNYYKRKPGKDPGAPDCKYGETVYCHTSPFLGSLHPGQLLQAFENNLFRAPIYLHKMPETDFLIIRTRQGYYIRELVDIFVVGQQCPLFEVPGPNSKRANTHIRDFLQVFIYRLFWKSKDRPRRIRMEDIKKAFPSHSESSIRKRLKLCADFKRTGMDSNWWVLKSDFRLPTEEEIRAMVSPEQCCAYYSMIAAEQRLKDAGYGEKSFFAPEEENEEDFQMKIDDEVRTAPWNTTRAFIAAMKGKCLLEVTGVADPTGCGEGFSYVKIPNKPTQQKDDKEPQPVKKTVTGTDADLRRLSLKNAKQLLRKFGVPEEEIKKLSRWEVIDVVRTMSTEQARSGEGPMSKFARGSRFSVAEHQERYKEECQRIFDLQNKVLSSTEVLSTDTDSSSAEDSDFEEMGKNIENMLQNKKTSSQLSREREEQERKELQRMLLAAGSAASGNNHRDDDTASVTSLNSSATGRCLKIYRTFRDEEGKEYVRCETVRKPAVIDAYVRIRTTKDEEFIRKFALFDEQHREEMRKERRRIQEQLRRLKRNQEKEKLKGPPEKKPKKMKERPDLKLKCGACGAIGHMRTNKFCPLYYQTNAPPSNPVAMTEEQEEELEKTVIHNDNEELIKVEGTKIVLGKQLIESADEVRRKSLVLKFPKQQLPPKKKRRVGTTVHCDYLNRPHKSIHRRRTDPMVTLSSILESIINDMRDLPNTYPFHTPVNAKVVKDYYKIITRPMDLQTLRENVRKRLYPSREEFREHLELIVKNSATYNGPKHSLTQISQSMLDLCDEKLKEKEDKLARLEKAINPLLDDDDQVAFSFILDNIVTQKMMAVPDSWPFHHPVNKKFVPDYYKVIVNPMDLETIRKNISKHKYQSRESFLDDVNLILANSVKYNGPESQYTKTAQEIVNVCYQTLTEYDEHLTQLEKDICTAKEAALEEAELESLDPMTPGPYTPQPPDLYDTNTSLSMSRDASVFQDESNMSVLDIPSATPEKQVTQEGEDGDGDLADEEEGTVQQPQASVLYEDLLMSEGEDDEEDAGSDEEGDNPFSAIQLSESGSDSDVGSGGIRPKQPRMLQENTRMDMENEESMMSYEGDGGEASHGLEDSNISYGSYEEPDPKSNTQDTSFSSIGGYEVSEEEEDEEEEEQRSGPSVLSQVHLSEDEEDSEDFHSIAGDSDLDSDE
T3 sequence (Q9UEE5 whole entry): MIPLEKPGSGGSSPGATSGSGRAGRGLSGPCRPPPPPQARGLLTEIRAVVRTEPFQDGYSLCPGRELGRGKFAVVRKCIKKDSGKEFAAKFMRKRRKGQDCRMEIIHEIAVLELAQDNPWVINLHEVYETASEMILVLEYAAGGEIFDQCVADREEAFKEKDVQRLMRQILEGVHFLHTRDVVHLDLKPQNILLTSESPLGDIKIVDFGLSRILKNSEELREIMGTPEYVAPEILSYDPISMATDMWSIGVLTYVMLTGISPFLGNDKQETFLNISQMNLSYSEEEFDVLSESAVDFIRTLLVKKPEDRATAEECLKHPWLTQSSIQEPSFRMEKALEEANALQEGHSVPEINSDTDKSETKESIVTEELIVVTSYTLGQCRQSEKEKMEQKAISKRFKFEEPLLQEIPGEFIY
T10 sequence (Q96GD4 whole entry): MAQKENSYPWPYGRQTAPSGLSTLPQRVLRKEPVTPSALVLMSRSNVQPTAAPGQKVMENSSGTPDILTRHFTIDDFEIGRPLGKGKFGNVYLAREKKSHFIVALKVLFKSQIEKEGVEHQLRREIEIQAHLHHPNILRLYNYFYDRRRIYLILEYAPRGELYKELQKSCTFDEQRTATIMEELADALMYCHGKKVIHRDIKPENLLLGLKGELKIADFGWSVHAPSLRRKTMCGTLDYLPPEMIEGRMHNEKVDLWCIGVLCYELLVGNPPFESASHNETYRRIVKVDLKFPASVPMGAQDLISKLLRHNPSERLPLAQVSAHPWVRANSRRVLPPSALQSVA
T30 sequence (O43293 whole entry): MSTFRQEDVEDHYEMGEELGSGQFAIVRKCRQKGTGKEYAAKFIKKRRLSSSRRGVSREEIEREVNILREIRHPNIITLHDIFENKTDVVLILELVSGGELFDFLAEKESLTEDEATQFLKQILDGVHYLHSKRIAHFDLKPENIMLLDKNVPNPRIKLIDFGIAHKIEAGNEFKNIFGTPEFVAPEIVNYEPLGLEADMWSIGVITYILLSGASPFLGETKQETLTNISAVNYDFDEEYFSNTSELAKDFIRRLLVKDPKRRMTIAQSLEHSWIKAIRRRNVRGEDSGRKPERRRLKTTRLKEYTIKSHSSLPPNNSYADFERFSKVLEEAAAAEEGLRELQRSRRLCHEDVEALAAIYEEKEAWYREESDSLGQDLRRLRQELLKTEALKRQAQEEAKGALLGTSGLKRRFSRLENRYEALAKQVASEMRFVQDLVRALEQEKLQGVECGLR
T13 sequence (P51813 whole entry): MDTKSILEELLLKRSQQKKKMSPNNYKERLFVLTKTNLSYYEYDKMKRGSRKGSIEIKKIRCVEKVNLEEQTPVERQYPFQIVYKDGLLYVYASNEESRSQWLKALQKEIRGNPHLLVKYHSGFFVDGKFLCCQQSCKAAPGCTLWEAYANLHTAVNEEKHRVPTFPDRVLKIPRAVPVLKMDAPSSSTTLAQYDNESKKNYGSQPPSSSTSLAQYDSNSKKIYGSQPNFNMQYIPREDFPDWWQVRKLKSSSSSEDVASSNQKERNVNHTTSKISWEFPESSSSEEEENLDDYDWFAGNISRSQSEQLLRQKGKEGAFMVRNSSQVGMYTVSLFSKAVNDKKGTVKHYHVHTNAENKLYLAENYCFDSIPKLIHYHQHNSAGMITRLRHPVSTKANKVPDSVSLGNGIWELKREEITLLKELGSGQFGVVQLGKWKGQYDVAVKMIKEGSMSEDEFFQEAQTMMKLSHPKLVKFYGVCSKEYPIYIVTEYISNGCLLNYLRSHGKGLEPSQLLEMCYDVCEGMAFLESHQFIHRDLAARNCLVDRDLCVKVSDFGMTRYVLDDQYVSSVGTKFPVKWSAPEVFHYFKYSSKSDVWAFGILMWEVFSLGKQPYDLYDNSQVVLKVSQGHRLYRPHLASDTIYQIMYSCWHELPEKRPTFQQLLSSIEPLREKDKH
T5 sequence (P15735 whole entry): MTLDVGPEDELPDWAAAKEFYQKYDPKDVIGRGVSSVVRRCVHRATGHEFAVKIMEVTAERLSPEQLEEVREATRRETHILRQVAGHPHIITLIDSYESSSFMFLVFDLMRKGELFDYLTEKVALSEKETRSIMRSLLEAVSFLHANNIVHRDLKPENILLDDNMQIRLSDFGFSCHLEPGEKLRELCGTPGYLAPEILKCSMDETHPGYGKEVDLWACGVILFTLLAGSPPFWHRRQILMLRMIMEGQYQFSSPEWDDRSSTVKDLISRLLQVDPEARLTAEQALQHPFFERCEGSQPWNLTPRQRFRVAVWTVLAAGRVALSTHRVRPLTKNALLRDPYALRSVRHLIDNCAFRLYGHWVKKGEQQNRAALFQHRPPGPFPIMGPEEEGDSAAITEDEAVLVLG

SMILES: CCc1cnc(Nc2nc(Cl)ccc2[N+](=O)[O-])nc1N1CCN(Cc2nc3cc(C(F)(F)F)ccc3[nH]2)CC1 [Compound 2]
- half-life ([1]; Nα-acetyl lysine in MeCN/PBS buffer, pH 7.4): 1160 h
- half-life ([1]; Nα-acetyl lysine in sodium tetraborate buffer (28 mM), pH 10.2, corrected for aqueous degradation): 27 h
- reactivity towards Nα-acetyl lysine ([1]; physiological pH): negligible reactivity
- half-life [2]: 139 h
- ΔTm at 10 µM [3]: 0.2 °C
- ΔTm at 10 µM [4]: 1.5 °C
- ΔTm at 10 µM [5]: -0.7 °C
- ΔTm at 10 µM [6]: -0.4 °C
- ΔTm at 10 µM [7]: 0.2 °C
- ΔTm at 10 µM [8]: -0.6 °C
- ΔTm at 10 µM [9]: -0.8 °C
- ΔTm at 10 µM [10]: 0.8 °C
- ΔTm [11]: > 2 °C
- ΔTm at 10 µM [11]: 3 °C
- ΔTm at 10 µM [12]: 0 °C
- ΔTm at 10 µM [13]: 0.2 °C
- ΔTm at 10 µM [14]: 0.9 °C
- ΔTm at 10 µM [15]: -0.5 °C
- ΔTm at 10 µM [16]: 0.1 °C
- ΔTm at 10 µM [17]: -0.2 °C
- ΔTm at 10 µM [18]: -0.6 °C
- ΔTm at 10 µM [19]: 0 °C
- ΔTm at 10 µM [20]: 0 °C
- ΔTm at 10 µM [21]: 0.3 °C
- ΔTm at 10 µM [22]: -0.2 °C
- ΔTm at 10 µM [23]: -0.6 °C
- ΔTm at 10 µM [24]: 0.2 °C
- ΔTm at 10 µM [25]: 0.1 °C
- ΔTm at 10 µM [26]: -0.2 °C
- ΔTm at 10 µM [27]: -0.2 °C
- ΔTm at 10 µM [28]: 0.4 °C
- ΔTm at 10 µM [29]: -0.6 °C
- ΔTm at 10 µM [30]: 0.1 °C
- ΔTm at 10 µM [31]: 0.4 °C
- ΔTm at 10 µM [32]: 0.9 °C
- ΔTm at 10 µM [33]: 0.3 °C
- ΔTm at 10 µM [34]: -0.2 °C
- ΔTm at 10 µM [35]: -0.6 °C
